Test results taken from patent US7892350B2, “Sacrificial agents for fly ash concrete” (Boral Material Technologies Inc., priority 2003, dated 2011).

What was measured:
[1] = Adsorption/precipitation of SA or AEA in 10 wt % aqueous fly ash or cement slurries at pH 12.5; type: physicochemical; conditions: initial SA 3 mM
Experimental: Adsorption/Precipitation of Sacrificial Agents (SA) or Air Entrainment Agents (AEA) in 10 wt % Aqueous Fly Ash Slurries at pH 12.5:
(§1) The pH of the solutions were adjusted to 12.5 with NaOH.
Adsorption/Precipitation in FA or Cement Slurries: In this protocol, aqueous slurries containing 10 wt % FA or cement were prepared as described above, except that in this case, the cement was added directly into a solution of the SA or AEA in the following proportions: 3.0 g cement or FA, and 27 g of 3 mM sacrificial agent, or 27 g of 1050 mg/l AEA; the latter were prepared in the same way as in the precipitation test above. The residual (soluble) SA or AEA content in the solution was also determined by UV or COD.

[2] = Paste air entrainment, Minimum air protocol
Experimental: Preparation of pastes: Pastes were prepared by pouring 400 g of cementitious powder in the 350-400 g of solution (water and additives) in a vessel (8.4 cm dia,×14.5 cm height) while gently stirring with a spatula; the exact quantity of water depends on the selected W/B ratio (see below); rapid hand mixing was continued for 1 minute, followed by intense stirring at 25° C. during 2 min using a hand-held mixer (BRAUN model MR400). The level of air entrained is dependent on the mode of utilisation of the mixer, namely the height of the mixer from the bottom of the vessel and the length of the mixing stroke; the following protocols were adopted.
Minimum air protocol: The BRAUN mixer is positioned at 1.0 inch from the bottom of the mixing vessel and the up-down motion of the mixer is limited to a 1.0 inch displacement; this provided ‘minimum air’ entrained air levels and is later referred to as ‘Minimum air protocol’ (Results reported in Table 6, col. 1 and Table 7).
Fluidity measurements: For all air entrainment measurements, the initial fluidity of the paste (without additives) was controlled using the ‘mini-slump’ procedure widely used for paste and grouts. In this protocol, a portion of the paste was transferred into the min-slump cone (a 2¼″ high, 1½″ bottom diameter, ¾″ top diameter cone); excess paste was skimmed-off with a straight; the cone was then raised and the spread diameter of the paste was recorded (average of two measurements). The fluidity is measured at 10 minutes after mixing. The paste is returned to the batch and reserved for subsequent AE measurements. The fluidity of the paste (without SA and AEA) is adjusted by changing the amount of water (water/cementitious ratio) which yields a spread diameter of 115±5 mm. The latter is monitored regularly.
Air entrainment measurements: For air entrainment measurements, a portion of the paste was transferred to overfill a Plexiglas cylinder (3¾ inches height, 2 inches interior diameter), which was then levelled flush to the top of the cylinder with a straight edge. The mass of the filled cylinder, minus the weight of the empty cylinder, is then recorded and used to calculate the amount of air according to the following formula: […]
This procedure was carried out at three times at 30 min. intervals (6, 36 and 66 min); the paste was let to stand at rest between measurements, and was stirred gently by hand for one minute prior to the subsequent air entrainment measurements.
Typical mixture compositions for air entrainment measurements in pastes containing a single additive using ‘Minimum air protocol’ (results shown in Table 6, col. 1): […]

[3] = Paste air entrainment, Maximum air protocol
In short: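 Pastes of 400 g cementitious powder in water plus additives, hand-mixed 1 min then mixer-stirred 2 min at 25 °C; water/binder ratio set so additive-free paste gives 115±5 mm mini-slump spread at 10 min. Air content calculated from mass of paste filling a fixed-volume cylinder at 6, 36 and 66 min, paste at rest between readings and hand-stirred 1 min beforehand.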

[4] = Air entrainment in fresh concrete (ASTM C 231-97)
Experimental: The sacrificial agents were added to the cementitious mixtures in several ways: • 1) mixing together with water and air entrainment agent solution • 2) premixed with the fly ash • 3) post-added into the fresh concrete which already contained the air entrainment agent.

[5] = Precipitation in slurry extract or leachate; type: physicochemical; conditions: pH 12.5, entries in parentheses
Experimental: as §1
Precipitation in slurry extract or leachate: To perform this test, FA or cement leachate were prepared in advance, by filtering two liters of a 10 wt % FA, or cement, slurry in 0.03N NaOH which had been left to stand under slow agitation for 30 min; 2.5 g of the filtrate solution was mixed with 22.5 g of the SA or AEA solution in a 50 ml polypropylene centrifuge tube; the latter was shaken vigorously in an orbital shaker (Eberbach Corporation) for 30 min at room temperature, centrifuged for 5 min and then the supernatant solution was filtered (0.45 μm). The SA or AEA content of the solution was determined using an Ultraviolet-Visible (UV) spectrometer or by COD (Chemical Oxygen Demand) measurement.
Entries in parentheses: % precipitation when reacted with solutions extracted from the fly ash slurries (Results in Table 5).

Compound: OCCOc1ccccc1 [EGPE, Ethylene glycol phenyl ether]
- Adsorption (wt % Adsorbed) ([1]; 10 wt % fly ash B1 (LOI 4.36%) slurry, Air 30/Air 40 0.105 wt %): 12 wt %
- Adsorption (wt % Adsorbed) ([1]; 10 wt % fly ash C1, class C (LOI 1.62%) slurry, Air 30/Air 40 0.105 wt %): 12 wt %
- Adsorption (wt % Adsorbed) ([1]; 10 wt % fly ash C2 (LOI 3.32%) slurry): 6 wt %
- Adsorption (wt % Adsorbed) ([1]; 10 wt % fly ash M1 (LOI […]) slurry, Air 30/Air 40 0.105 wt %): 4 wt %
- Adsorption (wt % Adsorbed) ([1]; 10 wt % fly ash M2 (LOI 5.34%) slurry, Air 30/Air 40 0.105 wt %): 14 wt %
- Adsorption (wt % Adsorbed) ([1]; 10 wt % fly ash M3 (LOI 11.33%) slurry, Air 30/Air 40 0.105 wt %): 14 wt %
- Adsorption (wt % Adsorbed) ([1]; 10 wt % fly ash N (LOI 0.30%) slurry): 1 wt %
- Air entrained ([2]; 50:50 fly ash B1 (LOI 4.36%):PCA paste, 0.1 wt % Air 30 alone or with 0.05 wt % of the SA): 4 vol %
- Air entrained ([2]; 50:50 fly ash C1 (LOI 1.62%):PCA paste, 0.1 wt % Air 30 alone or with 0.05 wt % of the SA): 5 vol %
- Air entrained ([2]; 50:50 fly ash D (LOI […]):PCA paste, 0.1 wt % Air 30 alone or with 0.05 wt % of the SA): 5 vol %
- Air entrained ([2]; 50:50 fly ash M1 (LOI […]):PCA paste, 0.1 wt % Air 30 alone or with 0.05 wt % of the SA): 5 vol %
- Air entrained ([2]; 50:50 fly ash M2 (LOI 5.34%):PCA paste, 0.1 wt % Air 30 alone or with 0.05 wt % of the SA): 4 vol %
- Air entrained ([2]; 50:50 fly ash M3 (LOI 11.33%):PCA paste, 0.1 wt % Air 30 alone or with 0.05 wt % of the SA): 4 vol %
- Air entrained ([2]; 50:50 fly ash R (LOI […]):PCA paste, 0.1 wt % Air 30 alone or with 0.05 wt % of the SA): 5 vol %
- Air entrained ([2]; PCA cement paste, 0.1% SA or AEA alone, Minimum air protocol): 0 vol %
- Average of air entrained ([2]; over the fly ash:PCA pastes of Table 7, 0.1 wt % Air 30 alone or with 0.05 wt % of the SA): 4%
- Air entrained at 66 min ([3]; 50:50 fly ash B1 (LOI 4.36%):PCA paste, Air 30 (0.0125%)/NS/X=1/4/4, X = the labelled SA): 4 vol %
- Air entrained at 66 min ([3]; 50:50 fly ash B1 (LOI 4.36%):PCA paste, Air 30 (0.0125 wt %)/ND/X=1/4/4, X = the labelled SA): 14 vol %
- Air entrained at 66 min ([3]; 50:50 fly ash C1 (LOI 1.62%):PCA paste, Air 30 (0.0125%)/NS/X=1/4/4, X = the labelled SA): 9 vol %
- Air entrained at 66 min ([3]; 50:50 fly ash C1 (LOI 1.62%):PCA paste, Air 30 (0.0125 wt %)/ND/X=1/4/4, X = the labelled SA): 19 vol %
- Air entrained at 66 min ([3]; 50:50 fly ash D (LOI […]):PCA paste, Air 30 (0.0125%)/NS/X=1/4/4, X = the labelled SA): 15 vol %
- Air entrained at 66 min ([3]; 50:50 fly ash D (LOI […]):PCA paste, Air 30 (0.0125 wt %)/ND/X=1/4/4, X = the labelled SA): 22 vol %
- Air entrained at 66 min ([3]; 50:50 fly ash M1 (LOI […]):PCA paste, Air 30 (0.0125%)/NS/X=1/4/4, X = the labelled SA): 11 vol %
- Air entrained at 66 min ([3]; 50:50 fly ash M1 (LOI […]):PCA paste, Air 30 (0.0125 wt %)/ND/X=1/4/4, X = the labelled SA): 18 vol %
- Air entrained at 66 min ([3]; 50:50 fly ash M2 (LOI 5.34%):PCA paste, Air 30 (0.0125%)/NS/X=1/4/4, X = the labelled SA): 3 vol %
- Air entrained at 66 min ([3]; 50:50 fly ash M2 (LOI 5.34%):PCA paste, Air 30 (0.0125 wt %)/ND/X=1/4/4, X = the labelled SA): 11 vol %
- Air entrained at 66 min ([3]; 50:50 fly ash M3 (LOI 11.33%):PCA paste, Air 30 (0.0125%)/NS/X=1/4/4, X = the labelled SA): 3 vol %
- Air entrained at 66 min ([3]; 50:50 fly ash M3 (LOI 11.33%):PCA paste, Air 30 (0.0125 wt %)/ND/X=1/4/4, X = the labelled SA): 13 vol %
- Air entrained at 66 min ([3]; 50:50 fly ash R (LOI […]):PCA paste, Air 30 (0.0125%)/NS/X=1/4/4, X = the labelled SA): 11 vol %
- Air entrained at 66 min ([3]; 50:50 fly ash R (LOI […]):PCA paste, Air 30 (0.0125 wt %)/ND/X=1/4/4, X = the labelled SA): 18 vol %
- Air entrained ([3]; PCA cement paste, 0.0125% SA or AEA alone, Maximum air protocol): 1 vol %
- Air entrained at 66 min ([3]; PCA paste, no fly ash, Air 30 (0.0125 wt %)/ND/X=1/4/4, X = the labelled SA): 23 vol %
- air entrained (average) ([3]; fly ash:cement pastes, SA added at four (4) times the fixed Air 30 dosage (0.0125%)): 7%
- Average of air entrained at 66 min ([3]; over the fly ash:PCA pastes of Table 9, Air 30 (0.0125 wt %)/ND/X=1/4/4, X = the labelled SA): 17%
- Air ([4]; 25% B1 fly ash (LOI 1.9%):PCA concrete, Air 40 0.003 % CM + EGPE 0.100 % CM): 5.1%
- Air ([4]; 25% B1 fly ash (LOI 1.9%):PCA concrete, Air 40 0.006 % CM + EGPE 0.100 % CM): 6.2%
- Air ([4]; 25% B1 fly ash (LOI 1.9%):PCA concrete, Air 40 0.009 % CM + EGPE 0.100 % CM): 7.4%
- Air ([4]; Air 30 0.006 % CM, EGPE 0.100 % CM added during batching, PCA cement, B1 fly ash 25 %, LOI […]): 11.4%
- Air ([4]; Air 30 0.006 % CM, EGPE 0.100 % CM premixed with fly ash, PCA cement, B1 fly ash 25 %, LOI […]): 10.0%
- Air ([4]; Air 40 0.003 % CM, EGPE 0.100 % CM added during batching, PCA cement, B1 fly ash 25 %, LOI […]): 2.7%
- Air ([4]; Air 40 0.003 % CM, EGPE 0.100 % CM premixed with fly ash, PCA cement, B1 fly ash 25 %, LOI […]): 2.9%
- Air ([4]; Air 40 0.008 % CM, EGPE 0.100 % CM added during batching, PCA cement, B1 fly ash 25 %, LOI […]): 4.9%
- Air ([4]; Air 40 0.008 % CM, EGPE 0.100 % CM premixed with fly ash, PCA cement, B1 fly ash 25 %, LOI […]): 4.7%
- % air, levelling-off ([4]; B1 fly ash ([…] LOI):PCA concrete, Air 40 0.003 wt %, increasing dosages of EGPE): 6-8 vol %
- % air ([4]; B1 fly ash ([…] LOI):PCA concrete, EGPE 0.1 wt % with increasing Air 40 dosage): approx 5%
- Air ([4]; PCA cement concrete, no fly ash, Air 40 0.003 % CM + EGPE 0.050 % CM): 6.5%
- Air ([4]; PCA cement concrete, no fly ash, Air 40 0.003 % CM + EGPE 0.100 % CM): 6.5%
- Air ([4]; PCA cement concrete, no fly ash, Air 40 0.003 % CM + EGPE 0.200 % CM): 6.2%
- Air ([4]; PCA cement concrete, no fly ash, Air 40 0.006 % CM + EGPE 0.050 % CM): 8.1%
- Air ([4]; PCA cement concrete, no fly ash, Air 40 0.006 % CM + EGPE 0.100 % CM): 8.3%
- Air ([4]; PCA cement concrete, no fly ash, Air 40 0.006 % CM + EGPE 0.200 % CM): 8.0%
- Air ([4]; PCC cement concrete, no fly ash, no Air 40, EGPE alone 0.010 % CM): 1.9%
- Air ([4]; PCC cement concrete, no fly ash, no Air 40, EGPE alone 0.030 % CM): 2.0%
- Air ([4]; PCC cement concrete, no fly ash, no Air 40, EGPE alone 0.050 % CM): 2.0%
- Air ([4]; PCC cement concrete, no fly ash, no Air 40, EGPE alone 0.100 % CM): 2.1%
- increase in air entrained above the control values ([4]; cement-only concrete without air entrainment agents, various dosages): about 1%
- Precipitation (wt % precipitated) ([5]; solution extracted from 10 wt % fly ash B1 (LOI 4.36%) slurry): 0 wt %
- Precipitation (wt % precipitated) ([5]; solution extracted from 10 wt % fly ash C1, class C (LOI 1.62%) slurry): 0 wt %
- Precipitation (wt % precipitated) ([5]; solution extracted from 10 wt % fly ash C2 (LOI 3.32%) slurry): 0 wt %
- Precipitation (wt % precipitated) ([5]; solution extracted from 10 wt % fly ash M1 (LOI […]) slurry): 1 wt %
- Precipitation (wt % precipitated) ([5]; solution extracted from 10 wt % fly ash M2 (LOI 5.34%) slurry): 0 wt %
- Precipitation (wt % precipitated) ([5]; solution extracted from 10 wt % fly ash M3 (LOI 11.33%) slurry): 0 wt %
- Precipitation (wt % precipitated) ([5]; solution extracted from 10 wt % fly ash N (LOI 0.30%) slurry): 0 wt %
